One block for each compound: values may come before it.
Assays:
ARF1^WT (Δ17ARF1) [1] = target: T1, ARF1^WT (Δ17ARF1) (Homo sapiens, UniProt P84077); experiment: protein thermal shift (SYPRO Orange); intact-protein and tandem MS; format: binding; details: […] protein, covalent at C159
T1 construct: N-terminally truncated (first 17 residues removed), His6-tag (pProEX HTb), E. coli BL21-CodonPlus (DE3)-RIPL

SPOP^MATH = target: T2, SPOP^MATH (Homo sapiens, UniProt O43791); experiment: fluorescence polarization, displacement of FITC-puc_SBC1 peptide; format: binding
T2 construct: MATH domain, residues 28-166; GST tag cut with PreScission protease; E. coli BL21-CodonPlus (DE3)-RIPL

ARF1^WT (Δ17ARF1) [2] = target: T3, ARF1^WT (Δ17ARF1) (Homo sapiens, UniProt P84077, C159A); experiment: protein thermal shift (SYPRO Orange); format: binding; details: no covalent adduct by mass spectrometry
T3 construct: N-terminally truncated (first 17 residues removed), His6-tag (pProEX HTb), E. coli BL21-CodonPlus (DE3)-RIPL
Excerpt: protein thermal shift (SYPRO Orange) on ARF1^WT (Δ17ARF1) | PPIs with ARF1^C159A where C159 was mutated to alanine. No Tm shifts were observed

ARF1^WT (Δ17ARF1) [3] = target: T1, ARF1^WT (Δ17ARF1); experiment: GDP/MANT-GTP nucleotide exchange, fluorescence; format: biochemical; details: exchange catalysed by […] human ARNO Sec7 ([…]-250)
RNF130 = target: T4, RNF130 (Homo sapiens, UniProt Q86XS8); experiment: ITC; format: binding; details: […] RNF130 in cell, […] compound injected; N = […]
T4 construct: residues 1-304, C-terminal His8-Flag tag kept, expressed in Expi-293F
T4 sequence (Q86XS8 28-304 limits assumed): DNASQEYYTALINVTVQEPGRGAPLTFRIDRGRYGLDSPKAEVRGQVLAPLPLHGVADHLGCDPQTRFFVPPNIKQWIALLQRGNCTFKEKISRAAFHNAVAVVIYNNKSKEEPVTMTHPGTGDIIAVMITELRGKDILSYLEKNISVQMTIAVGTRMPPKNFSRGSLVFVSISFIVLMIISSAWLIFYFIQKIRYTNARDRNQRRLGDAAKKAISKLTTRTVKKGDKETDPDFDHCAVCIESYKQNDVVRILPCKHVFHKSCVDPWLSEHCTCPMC

T2 sequence (O43791 28-166): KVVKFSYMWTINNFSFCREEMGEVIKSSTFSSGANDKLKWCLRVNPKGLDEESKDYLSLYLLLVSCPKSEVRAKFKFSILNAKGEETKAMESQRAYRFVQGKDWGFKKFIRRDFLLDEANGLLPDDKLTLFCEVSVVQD
T3 sequence (P84077 18-181 C159A): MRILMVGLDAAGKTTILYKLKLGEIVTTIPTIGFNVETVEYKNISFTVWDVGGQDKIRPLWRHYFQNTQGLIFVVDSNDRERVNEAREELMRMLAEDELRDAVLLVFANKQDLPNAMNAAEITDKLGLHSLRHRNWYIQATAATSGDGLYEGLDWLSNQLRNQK

SMILES: COc1ccnc(C[S+]([O-])c2nc3cc(OC(F)F)ccc3[nH]2)c1OC (stereo not drawn) [pantoprazole]
Tm shift (ARF1^WT (Δ17ARF1) [1]; no DTT): PPIs could bind directly to wild-type ARF1 (ARF1^WT) and destabilize the protein

IC50 (SPOP^MATH): > 100 µM
SMILES: C=CC1=C(C(=O)O)N2C(=O)[C@@H](NC(=O)CCC3CCCC3)[C@H]2SC1 [222A5, (6R,7R)−7-(3-cyclopentylpropanamido)−8-oxo-3-vinyl-5-thia-1-azabicyclo[4.2.0]oct-2-ene-2-carboxylic acid]

SMILES: Cc1c(OCC(F)(F)F)ccnc1C[S+]([O-])c1nc2ccccc2[nH]1 (stereo not drawn) [lansoprazole]
Tm shift (ARF1^WT (Δ17ARF1) [1]; no DTT): PPIs could bind directly to wild-type ARF1 (ARF1^WT) and destabilize the protein

SMILES: COCCCOc1ccnc(C[S+]([O-])c2nc3ccccc3[nH]2)c1C (stereo not drawn) [rabeprazole]
Tm shift (ARF1^WT (Δ17ARF1) [1]; no DTT; […] compound): PPIs could bind directly to wild-type ARF1 (ARF1^WT) and destabilize the protein | Tm shift (ARF1^WT (Δ17ARF1) [2]): PPIs with ARF1^C159A where C159 was mutated to alanine. No Tm shifts were observed | GDP/MANT-GTP nucleotide exchange, fluorescence (ARF1^WT (Δ17ARF1) [3]): rabeprazole suppressed the nucleotide exchange process in a concentration-dependent manner

SMILES: COc1ccc2[nH]c([S+]([O-])Cc3ncc(C)c(OC)c3C)nc2c1 (stereo not drawn) [omeprazole]
Tm shift (ARF1^WT (Δ17ARF1) [1]; no DTT): PPIs could bind directly to wild-type ARF1 (ARF1^WT) and destabilize the protein

SMILES: CS(=O)(=O)c1nnc(CN2C3C=C(c4ccccc4)CC2CC3)s1 (stereo not drawn) [iRNF130-63]
Kd (RNF130): 1.23 µM

IC50 (SPOP^MATH): 4.51 µM
SMILES: Cc1nnc(SCC2=C(C(=O)O)N3C(=O)C(NC(=O)c4ccc(COc5ccccc5Cl)o4)C3SC2)s1 (stereo not drawn) [221C7]

From article PMC10349078, “Sequence-based drug design as a concept in computational drug design” (Nature Communications, 2023)
